Measured values as given in patent US20100209846A1, “NEGATIVE-WORKING IMAGEABLE ELEMENTS” (priority 2009, published 2010).

Experiment: Solubility of contrast dye in water
Format: physicochemical

Row | SMILES | Solubility of contrast dye in 1 liter water
1 | CCCCCCC(CCCCCC)c1ccc(/C=C2/C(=C(C#N)C#N)c3ccccc3S2(=O)=O)c(C)c1 | 0.25 g
2 | CN(C)c1ccc(C(=C2C=CC(=[N+](C)C)C=C2)c2ccc(N(C)C)cc2)cc1 [Crystal Violet] | 4 g
